Results on 22 compounds are retold here after patent EP0364581A1, “METHOD OF STERILIZING PLANT POLLEN” (VSESOJUZNY NAUCHNO-ISSLEDOVATELSKY INST. SELSKOKHOZYAISTV. …, priority 1988, dated 1989).

Molecules are shown by their SMILES. Read-outs that look alike come from different tables or passages of the source.

What all share (assay): field test of gametocidal activity (sterilisation of anthers)
Holding throughout (assay type): in vivo

The test system of test [1] is Winterweizen Mironovskaya 808. Particulars: treated in V. Periode der Organogenese, 2%ige wäßrige Emulsion, 20 kg/ha; for Prozentsatz des Ansetzens der Körner bei freier Bestäubung: control = 100. The text has this: (§1) Die gametozide Aktivität der erfindungsgemäßen Sterilisationsmittel war in Feldversuch in verschiedenen bodenklimatischen Zonen mit Teilstücken von 10 m^2 Größe in drei-- bis viermaliger Wiederholung nachgewiesen. Jedes Sterilisationsmittel wurde mindestens 5 Jahre lang geprüft.
(§2) Die Entwicklung der Perioden der Organogenese wird zytologisch überwacht. Die Behandlung von Pflanzen mit dem Sterilisationsmittel erfolgt am Anfang der fünften Periode der Organogenese nach Kupermann.
(§3) Mit dem Ahrenschieben verwirklicht man die Isolierung von Hauptähren und anderen Stockwerken in Pergamentbeuteln. Bei Weizen und Tritikale werden Einzelisolatoren verwendet. Bei Roggen schließt man je 1 Ähre von 5 bis 7 verschiedenen nebeneinander befindlichen Pflanzen in einen gemeinsamen Isolator ein. Bei Hirse wird jede Rispe getrennt isoliert. Der Sterilitätsprozentsatz (X) für Weizen, Roggen, Tritikale und Hirse wird nach der Formel [formula]
(§4) Samen von unbehandelten Kontrollpflanzen ermittelt.
(§5) Die Kornzahl in nicht isolierten Ähren von Kontrollpflanzen wird bedingt für 100% Ansetzen bei freier Bestäubung angenommen.
(§6) Um zuverlässige Angaben zu erhalten, verwendet man 20 bis 25 Isolatoren jeder Wiederholung für Weizen und Tritikale, 10 bis 15 Isolatoren jeder Wiederholung für Roggen und Hirse.
Pflanzen des Winterweizens Sorte Mironovskaya 808 werden in der V. Periode der Organogenese durch Zerstäubung einer 2%igen wäßrigen Emulsion des Kaliumsalzes von 2-Methyl-3-zyklohexenkarbonsäure mit Hilfe einer Rückenspritze behandelt. Als Emulgiermittel setzt man 0,1 Masse% C12--C14 - Kalziumalkylbenzolsulfonat zu. Als Adjuvans führt man in die Emulsion 0,01 Masse% Dimethylformamid ein. Der Verbrauch an Präparat beträgt 20 kg/ha. Als Kontrolle dienen Pflanzen, behandelt mit einem Verdünner ohne Sterilisationsmittel. Die Ergebnisse sind in der Tabelle 1 angegeben. […] Periode der Organogenese erhalten.
Der Prozeß wird analog zu dem in Beispiel 1 beschriebenen durchgeführt. Als Sterilisationsmittel verwendet man eine 2%ige wäßrige Emulsion von 2-Methyl-3-zyklohexenkarbon- säuremethylester, Ammoniumsalz der 2-Methyl-[…], Phthalsäuredihexylester, Phthalsäuredibutylester, Phthalsäuredipropylester, Phthalsäurediisobutylester, Phthalsäurediäthylester. Die Ergebnisse sind in der Tabelle 1 angeführt. […]

The test system of the next test is Diploider Roggen Chulpan. Particulars: for response vs control in vivo at 8000 g/ha: read-out: Prozentsätz des Ansetzens der Körner bei freier Bestäubung; for percent sterility at 8000 g/ha / pest or weed control at 8000 g/ha: read-out: Prozentsatz der Sterilität.
Excerpt: as §1, §2, §3, §4, §5, §6
Pflanzen von diploidem Roggen Sorte Chulpan werden in der V. Periode der Organogenese (nach Kupermann) mit einer 1%igen wäßrigen Emulsion von Kaliumsalz der 2-Methyl-3-zy- klohexenkarbonsäure, 2-Methyl-3-zyklohexenkarbonsäuremethyl- ester, Kaliumsalz der Salizylsäure, Phthalsäurediallylester, Phthalsäurediisobutylester, Phthalsäuredipropylester, Phthalsäuredihexylester, Phthalsäuredibutylester. Die Emulsion enthält 0,01 Masse% Tetrahydrofuran und 0,1 Masse% C12-C14--Kalziumalkylbenzolsulfonat. Der Verbrauch an Präparat beträgt 8 kg/ha. Als Kuntrolle dienen Pflanzen, behandelt mit einem Verdünner ohne Sterilisationsmittel. […]

Test [2] concerns Hirse Sorte Mironovskoe 94. Particulars: V. Periode, 1%ige wäßrige Emulsion, 10 kg/ha; for Prozentsatz des Ansetzens der Körner bei freier Bestäubung: control = 100.
Excerpt: as §1, §2, §3, §4, §5, §6
Pflanzen der Hirse Sorte Mironovskoe 94 werden in der V. Periode der Organogenese (nach Kupermann) mit einer l%igen wäßrigen Emulsion von Kaliumsalz der 2-Methyl-3-zyklohexen- karbonsäure, 2-Methyl-3-zyklohexenkarbonsäuremethylester, Phthalsäuredihexylester, Phthalsäuredibutylester, Phthalsäuredipropylester, Natriumsalz der p-Hydroxybenzoesäure, Phthalsäurediäthylester, Phthalsäurediallylester behandelt. Die Emulsion enthält 0,01 Masse% Dimethylformamid und 0,1 Masse% C12-C14-Kalziumalkylbenzolsulfonat. Der Verbrauch an Präparat beträgt 10 kg/ha. Als Kontrolle dienen Pflanzen, behandelt mit einem Verdünner ohne Sterilisationsmittel. Die Prüfergebnisse sind in der Tabelle 17 angeführt. […] Periode der Organogenese erhalten.

The mark [3] stands for this setting: Chulpan, V. Periode, 1%ige wäßrige Emulsion, 8 kg/ha.
[4] abbreviates: Chulpan, V. Periode, 1%ige wäßrige Emulsion, 8 kg/ha, control = 100.

Consider `CC1C=CCCC1C(=O)[O-].[K+]` (stereo not shown) [Beispiel 1, Kaliumsalzes von 2-Methyl-3-zyklohexenkarbonsäure], for which, in test [1], the “Kornzahl der Ähre bei freier Bestäubung” value was 38,6, the “Kornzahl der Ähre im Isolator” value is recorded as 3,2, the “Prozentsatz der Sterilität” value is listed as 91,5% and the “Prozentsatz des Ansetzens der Körner bei freier Bestäubung” value is on record as 95,5%.

For the compound `COC(=O)C1CCC=CC1C` (stereo not shown) [Beispiel 2, 2-Methyl-3-zyklohexenkarbon-säuremethylester], in test [1], the “Kornzahl der Ähre bei freier Bestäubung” value is listed as 30,1, the “Kornzahl der Ähre im Isolator” value is 0,0, the “Prozentsatz der Sterilität” value is listed as 100,0% and the “Prozentsatz des Ansetzens der Körner bei freier Bestäubung” value is listed as 74,5%.

For the compound `CC1C=CCCC1C(=O)O.N` (stereo not shown) [Beispiel 3, Ammoniumsalz der 2-Methyl-23-zyklohexen-karbonsäure], in test [1], the “Kornzahl der Ähre bei freier Bestäubung” value is given as 39,2, the “Kornzahl der Ähre im Isolator” value is reported as 0,6, the “Prozentsatz der Sterilität” value was 98,4% and the “Prozentsatz des Ansetzens der Körner bei freier Bestäubung” value was 97,0%.

On to `CCCCCCOC(=O)c1ccccc1C(=O)OCCCCCC` [Beispiel 4, Phthalsäuredihexylester], for which, in test [1], the “Kornzahl der Ähre bei freier Bestäubung” value is given as 38,2, the “Kornzahl der Ähre im Isolator” value was 4,2, the “Prozentsatz der Sterilität” value is 88,9% and the “Prozentsatz des Ansetzens der Körner bei freier Bestäubung” value is listed as 94,5%.

`CCCCOC(=O)c1ccccc1C(=O)OCCCC` [Beispiel 5, Phthalsäuredibutylester]: in test [1], the “Kornzahl der Ähre bei freier Bestäubung” value is 31,7, the “Kornzahl der Ähre im Isolator” value was 0,0, the “Prozentsatz der Sterilität” value is recorded as 100,0% and the “Prozentsatz des Ansetzens der Körner bei freier Bestäubung” value is reported as 78,5%.

For the compound `CCCOC(=O)c1ccccc1C(=O)OCCC` [Beispiel 6, Phthalsäuredipropylester], in test [1], the “Kornzahl der Ähre bei freier Bestäubung” value is given as 39,0, the “Kornzahl der Ähre im Isolator” value is given as 5,0, the “Prozentsatz der Sterilität” value is recorded as 86,8% and the “Prozentsatz des Ansetzens der Körner bei freier Bestäubung” value is given as 96,5%.

`CC(C)COC(=O)c1ccccc1C(=O)OCC(C)C` [Beispiel 7, Phthalsäurediisobutylester]: in test [1], the “Kornzahl der Ähre bei freier Bestäubung” value is 37,7, the “Kornzahl der Ähre im Isolator” value is 0,2, the “Prozentsatz der Sterilität” value was 99,5% and the “Prozentsatz des Ansetzens der Körner bei freier Bestäubung” value is recorded as 93,3%.

Regarding `CCOC(=O)c1ccccc1C(=O)OCC` [Beispiel 8, Phthalsäurediäthylester], in test [1], the “Kornzahl der Ähre bei freier Bestäubung” value is recorded as 39,8, the “Kornzahl der Ähre im Isolator” value is 0,5, the “Prozentsatz der Sterilität” value is given as 98,7% and the “Prozentsatz des Ansetzens der Körner bei freier Bestäubung” value is recorded as 98,5%.

For the compound `CC1C=CCCC1C(=O)O` (stereo not shown) [Beispiel 60, Kaliumsalz der 2-Methyl-3-zy-klohexenkarbonsäure], in the test on Diploider Roggen Chulpan (setting [3]), the “Kornzahl der Ähre bei freier Bestäubung” value is given as 55,2, the “Kornzahl der Ähre im Isolator” value is reported as 0,0 and the percent sterility at 8000 g/ha is 100%. For the same compound, in the test on Diploider Roggen Chulpan (setting [4]), the response vs control in vivo at 8000 g/ha amounted to 97.1%.

In the case of `COC(=O)C1CCC=CC1C` (stereo not shown) [Beispiel 61, 2-Methyl-3-zyklohexenkarbonsäuremethyl-ester], in the test with Diploider Roggen Chulpan (setting [3]), the “Kornzahl der Ähre bei freier Bestäubung” value is reported as 51,0, the “Kornzahl der Ähre im Isolator” value was 0,0 and the percent sterility at 8000 g/ha is 100%. Further, the response vs control in vivo at 8000 g/ha with Diploider Roggen Chulpan (setting [4]) turned out to be 89.8%.

For `O=C(O)c1ccccc1O` [Beispiel 62, Kaliumsalz der Salizylsäure], in the test with Diploider Roggen Chulpan (setting [3]), the “Kornzahl der Ähre bei freier Bestäubung” value is 50,4 and the “Kornzahl der Ähre im Isolator” value was 10,4. In addition, in the test with Diploider Roggen Chulpan, the pest or weed control at 8000 g/ha amounted to 79.7% and the response vs control in vivo at 8000 g/ha was determined as 88.7%.

Turning to `C=CCOC(=O)c1ccccc1C(=O)OCC=C` [Beispiel 63, Phthalsäurediallylester], in the test on Diploider Roggen Chulpan (setting [3]), the “Kornzahl der Ähre bei freier Bestäubung” value is 53,7, the “Kornzahl der Ähre im Isolator” value is listed as 0,3 and the percent sterility at 8000 g/ha is 99.4%. In addition, in the test with Diploider Roggen Chulpan, the response vs control in vivo at 8000 g/ha is 94.5%.

Turning to `CC(C)COC(=O)c1ccccc1C(=O)OCC(C)C` [Beispiel 64, Phthalsäurediisobutylester], in the test on Diploider Roggen Chulpan (setting [3]), the “Kornzahl der Ähre bei freier Bestäubung” value is 52,2 and the “Kornzahl der Ähre im Isolator” value was 0,5. In the test with Diploider Roggen Chulpan, the pest or weed control at 8000 g/ha worked out at 99% and the response vs control in vivo at 8000 g/ha came out at 91.9%.

On to `CCCOC(=O)c1ccccc1C(=O)OCCC` [Beispiel 65, Phthalsäuredipropylester], for which, in the test with Diploider Roggen Chulpan (setting [3]), the “Kornzahl der Ähre bei freier Bestäubung” value is recorded as 53,2 and the “Kornzahl der Ähre im Isolator” value was 0,0. Also, in the test with Diploider Roggen Chulpan, the pest or weed control at 8000 g/ha came to 100% and the response vs control in vivo at 8000 g/ha was found to be 93.6%.

`CCCCCCOC(=O)c1ccccc1C(=O)OCCCCCC` [Beispiel 66, Phthalsäuredihexylester]: in the test with Diploider Roggen Chulpan (setting [3]), the “Kornzahl der Ähre bei freier Bestäubung” value is given as 57,0 and the “Kornzahl der Ähre im Isolator” value is listed as 0,0. For the same compound, in the test on Diploider Roggen Chulpan, the pest or weed control at 8000 g/ha was 100% and the response vs control in vivo at 8000 g/ha is 100%.

On to `CCCCOC(=O)c1ccccc1C(=O)OCCCC` [Beispiel 67, Phthalsäuredibutylester], for which, in the test with Diploider Roggen Chulpan (setting [3]), the “Kornzahl der Ähre bei freier Bestäubung” value is given as 50,5 and the “Kornzahl der Ähre im Isolator” value is given as 0,0. Moreover, in the test on Diploider Roggen Chulpan, the pest or weed control at 8000 g/ha stood at 100% and the response vs control in vivo at 8000 g/ha was determined as 88.9%.

Turning to `CC1C=CCCC1C(=O)[O-].[K+]` (stereo not shown) [Beispiel 89, Kaliumsalz der 2-Methyl-3-zyklohexen-karbonsäure], in test [2], the “Kornzahl der Rispe bei freier Bestäubung” value is recorded as 304,3, the “Kornzahl der Rispe im Isolator” value is reported as 0,0, the “Prozentsatz der Sterilität” value is reported as 100,0% and the “Prozentsatz des Ansetzens der Körner bei freier Bestäubung” value is 80,2%.

For the compound `COC(=O)C1CCC=CC1C` (stereo not shown) [Beispiel 90, 2-Methyl-3-zyklohexenkarbonsäuremethylester], in test [2], the “Kornzahl der Rispe bei freier Bestäubung” value was 327,6, the “Kornzahl der Rispe im Isolator” value is 0,0, the “Prozentsatz der Sterilität” value is 100,0% and the “Prozentsatz des Ansetzens der Körner bei freier Bestäubung” value is recorded as 86,3%.

On to `CCCCCCOC(=O)c1ccccc1C(=O)OCCCCCC` [Beispiel 91, Phthalsäuredihexylester], for which, in test [2], the “Kornzahl der Rispe bei freier Bestäubung” value is given as 311,5, the “Kornzahl der Rispe im Isolator” value was 0,0, the “Prozentsatz der Sterilität” value was 100,0% and the “Prozentsatz des Ansetzens der Körner bei freier Bestäubung” value is reported as 82,1%.

Take `CCCCOC(=O)c1ccccc1C(=O)OCCCC` [Beispiel 92, Phthalsäuredibutylester]: in test [2], the “Kornzahl der Rispe bei freier Bestäubung” value is 351,4, the “Kornzahl der Rispe im Isolator” value was 0,0, the “Prozentsatz der Sterilität” value is given as 100,0% and the “Prozentsatz des Ansetzens der Körner bei freier Bestäubung” value is 92,6%.

Take `CCCOC(=O)c1ccccc1C(=O)OCCC` [Beispiel 93, Phthalsäuredipropylester]: in test [2], the “Kornzahl der Rispe bei freier Bestäubung” value was 308,7, the “Kornzahl der Rispe im Isolator” value is reported as 0,0, the “Prozentsatz der Sterilität” value is given as 100,0% and the “Prozentsatz des Ansetzens der Körner bei freier Bestäubung” value was 81,3%.

For the compound `O=C([O-])c1ccc(O)cc1.[Na+]` [Beispiel 94, Natriumsalz der p-Hydroxybenzoesäure], in test [2], the “Kornzahl der Rispe bei freier Bestäubung” value was 400,7, the “Kornzahl der Rispe im Isolator” value was 0,0, the “Prozentsatz der Sterilität” value is recorded as 100,0% and the “Prozentsatz des Ansetzens der Körner bei freier Bestäubung” value was 105,6%.
